The values that follow come from publication PMC7478253, “Design, synthesis, and SAR study of isopropoxy allylbenzene derivatives as 15-lipoxygenase inhibitors” (Iranian Journal of Basic Medical Sciences, 2020).

Entries after “also recorded” stand apart in the source; their conditions may differ. Where two headings read alike, the source gives them in different places. Some results are limits rather than exact numbers.

Series [1] deals with T1, soybean 15-lipoxygenase (SLO; L1; Type I-B; EC 1,13,11,12) (Glycine max, UniProt P08170).
T1 construct: purchased Sigma Co
T1 sequence (P08170 1-839): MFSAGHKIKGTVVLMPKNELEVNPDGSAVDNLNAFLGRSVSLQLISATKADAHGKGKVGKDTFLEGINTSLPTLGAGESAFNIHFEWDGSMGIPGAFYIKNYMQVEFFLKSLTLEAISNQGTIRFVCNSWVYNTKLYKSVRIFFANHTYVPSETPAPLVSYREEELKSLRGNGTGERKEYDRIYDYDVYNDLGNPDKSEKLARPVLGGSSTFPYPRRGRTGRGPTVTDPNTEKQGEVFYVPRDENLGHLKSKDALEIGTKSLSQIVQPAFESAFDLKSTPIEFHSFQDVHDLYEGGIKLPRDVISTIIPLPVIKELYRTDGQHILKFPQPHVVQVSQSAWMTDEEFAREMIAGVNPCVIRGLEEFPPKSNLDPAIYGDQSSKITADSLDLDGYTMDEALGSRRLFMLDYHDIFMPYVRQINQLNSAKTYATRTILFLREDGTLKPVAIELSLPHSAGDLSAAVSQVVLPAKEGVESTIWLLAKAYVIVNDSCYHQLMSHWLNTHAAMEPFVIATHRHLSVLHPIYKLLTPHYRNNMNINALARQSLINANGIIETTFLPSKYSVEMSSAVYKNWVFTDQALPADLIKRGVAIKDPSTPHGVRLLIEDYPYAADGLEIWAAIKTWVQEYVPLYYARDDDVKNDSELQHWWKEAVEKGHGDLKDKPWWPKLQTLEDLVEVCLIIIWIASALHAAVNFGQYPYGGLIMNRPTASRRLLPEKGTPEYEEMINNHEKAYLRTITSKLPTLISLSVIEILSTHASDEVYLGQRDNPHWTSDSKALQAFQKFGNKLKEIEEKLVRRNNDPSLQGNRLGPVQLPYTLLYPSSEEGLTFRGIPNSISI
Briefly: SLO enzyme inhibition, peroxide-formation method (substrate linoleic acid). The series is classed as biochemical. As for the experimental part: LA, enzyme and two assay solutions (A and B) were firstly prepared as follow:
LA solution: A mixture of LA (5.6 mg), ethanol (0.5 ml) and KOH (100 mM) to a final volume of 5 ml (6).
The enzyme solution was prepared by dissolving 1 mg lyophilized SLO (L1; Type I-B; EC 1, 13, 11, 12; Sigma Co.) in 5 ml phosphate buffer (50 mM, pH 7.0) and then its activity was checked by diene formation method at 234 nm. Finally, its activity was decreased to desired quantity by dilution with the phosphate buffer.
Solution A: DMAB (3-dimethylaminobenzoic acid) 50 mM in phosphate buffer (100 mM, pH 7.0).
Solution B: A mixture of MBTH (3-methyl-2-benzothiazolonhydrazone) (10 mM, 3 ml) and hemoglobin (5 mg/ml, 3 ml) in 25 ml phosphate buffer (50 mM, pH 5.0).
Assay procedure: the sample solution in dimethyl sulfoxide (25 µl), enzyme solution (4000 units/ml; 25 µl), and phosphate buffer (pH 7.0, 50 mM; 900 µl) were mixed in a test plate and pre-incubated for 5 min at room temperature. Control test was done using the same volume of dimethyl sulfoxide. After pre-incubation, LA solution (50 µl) was added (starting of the peroxidation reaction) and 10 min later, solution A (270 µl) and subsequently solution B (130 µl) were added to start the color formation. 3 min later, 200 µl of sodium dodecyl sulfate solution (2% W/V) was added to terminate the reaction. The absorbance was recorded at 598 nm. Each experiment was performed in triplicate. The data analysis was done in GraphPad Prism 6.0 ([6]).
Lipoxygenase inhibitory activity of the synthetic compounds (substrate: linoleic acid) was assessed by using the peroxide-formation method, according to the published literature ([14], [15]). In this method, measurement of linoleate hydroperoxide concentration is the basis of lipoxygenase activity determination. All the assessments were performed in comparison with 4-MMPB (4-methyl-2-(4-methylpiperazinyl)pyrimido[4,5-b]benzothiazine) as a well-known lipoxygenase inhibitor.

For series [2], the target named is T1, soybean 15-lipoxygenase (SLO; L1; Type I-B; EC 1,13,11,12). To be noted: cited from earlier work.
The target in series [3] is T2, soybean 15-lipoxygenase (SLO) (Glycine max, UniProt P08170).
T2 construct: purchased Sigma Co
T2 sequence (P08170 1-839): T1 sequence (P08170 1-839)
The experiment in a line: Inhibitory mechanism of SLO inhibition (Michaelis-Menten / Lineweaver-Burk). The series is classed as biochemical. The note with it: Tris buffer pH 7.2; LA 6.25-100 µM; inhibitor 125, 100 and 75 µM; Lineweaver-Burk plot. As for the experimental part:
The experiment was done in Tris buffer (pH 7.2, 50 mM). Five concentrations of LA (6.25, 12.5, 25, 50 and 100 µM) were used. The enzyme activity was measured in the absence (control test) and presence of 6f as inhibitor (concentrations 125, 100, and 75 µM).
25 µl of the enzyme solution (4000 unit/ml) was added to mixture of buffer (900 µl) and inhibitor (25 µl) and incubated for 10 min at room temperature. Subsequently, 50 µl of LA solution was added to the mixture to start the reaction. After 10 min, solution A (270 µl) and then solution B (130 µl) were added to start color formation (preparation of solution A and B described in the previous section). 3 min later, 200 µl of a 2% SDS solution was added to terminate the reaction. The absorbance was recorded at 598 nm compared with the control. These experiments were performed in triplicate. Using the reaction rates (Abs.min^-1), both inhibitor and LA concentrations (µM), Michaelis-Menten and Lineweaver-Burk plots were graphed in GraphPad Prism 6.0.
So molecular docking by AutoDockTools could be responsible for finding the probable binding conformation of the inhibitors in active site pocket of SLO.

[4] abbreviates: substrate linoleic acid, phosphate buffer pH 7.0, absorbance 598 nm, triplicate, read-out: IC50 (SLO inhibition).

As to `C=CCc1cc(NC(=O)C2CC2)ccc1OC(C)C` [Compound 6a, N-(3-allyl-4-isopropoxyphenyl) cyclopropane carboxamide], the melting point (as a rule, the temperature of the solid-liquid transition) was 78 to 79 °C. For the same compound, in series [1] (setting [4]), the IC50 (in general, the concentration that inhibits the measured activity by half) was found to be 45.5 ± 8.1 µM. Turning to `C=CCc1cc(OC)ccc1OC(C)C` [Compound A2, 2-allyl-1-isopropoxy-4-methoxybenzene], in series [2] (previous work on 2-alkoxy-5-methoxyallylbenzenes, read-out: IC50 (lipoxygenase inhibition) of A2), the IC50 is 5.9 ± 0.6 µM. In the case of `C=CCc1cc(NC(=O)C2CCCCC2)ccc1OC(C)C` [Compound 6d, N-(3-allyl-4-isopropoxyphenyl) cyclohexane carboxamide], the melting point lay within 93 to 95 °C. In addition, the 50% inhibitory concentration (IC50) in series [1] (setting [4]) amounted to 3.56 ± 0.21 µM. For `C=CCc1cc(NC(=O)C23CC4CC(CC(C4)C2)C3)ccc1OC(C)C` [Compound 6f, N-(3-allyl-4-isopropoxyphenyl) adamantane carboxamide], inhibition in series [1] was half-maximal at 1.35 ± 0.08 µM (IC50). Besides, the “Inhibitory mechanism on SLO” value in series [3] is reported as “competitive mechanism”. `C=CCc1cc(NC(=O)c2ccccc2)ccc1OC(C)C` [Compound 6e, N-(3-allyl-4-isopropoxyphenyl) benzamide] yielded a melting point of 128 to 130 °C. Also, the “SLO inhibition, result in words” value in series [1] (substrate linoleic acid) is reported as “no effect; also recorded: did not show any activity”. Also, in series [1] (setting [4]), the IC50 is > 100 µM. `C=CCOc1ccc(NC(=O)C23CC4CC(CC(C4)C2)C3)cc1CC=C` [Compound A1, N-(3-allyl-4-(allyloxy)phenyl) adamantanecarboxamide]: the IC50 in series [2] (previous work on N-(3-allyl-4-(allyloxy)phenyl) carboxamides, read-out: IC50 (lipoxygenase inhibition) of A1) was 9.8 ± 1.2 µM. For the compound `C=CCc1cc(NC(=O)C2CCC2)ccc1OC(C)C` [Compound 6b, N-(3-allyl-4-isopropoxyphenyl) cyclobutane carboxamide], the melting point lay within 81 to 83 °C. For the same compound, the IC50 in series [1] (setting [4]) turned out to be 25.2 ± 2.1 µM.

`C=CCc1cc(NC(=O)C2CCCC2)ccc1OC(C)C` [Compound 6c, N-(3-allyl-4-isopropoxyphenyl) cyclopentane carboxamide] registered a melting point of 88 to 89 °C. Besides, the IC50 in series [1] (setting [4]) came to 9.27 ± 1.9 µM.
